One assay deals with T1, ferroportin (Fpn) (Mus musculus, UniProt Q9JHI9).
T1 construct: host or cells: J774 mouse macrophage cell line, Fe(III)-NTA induced
T1 sequence (Q9JHI9 1-570): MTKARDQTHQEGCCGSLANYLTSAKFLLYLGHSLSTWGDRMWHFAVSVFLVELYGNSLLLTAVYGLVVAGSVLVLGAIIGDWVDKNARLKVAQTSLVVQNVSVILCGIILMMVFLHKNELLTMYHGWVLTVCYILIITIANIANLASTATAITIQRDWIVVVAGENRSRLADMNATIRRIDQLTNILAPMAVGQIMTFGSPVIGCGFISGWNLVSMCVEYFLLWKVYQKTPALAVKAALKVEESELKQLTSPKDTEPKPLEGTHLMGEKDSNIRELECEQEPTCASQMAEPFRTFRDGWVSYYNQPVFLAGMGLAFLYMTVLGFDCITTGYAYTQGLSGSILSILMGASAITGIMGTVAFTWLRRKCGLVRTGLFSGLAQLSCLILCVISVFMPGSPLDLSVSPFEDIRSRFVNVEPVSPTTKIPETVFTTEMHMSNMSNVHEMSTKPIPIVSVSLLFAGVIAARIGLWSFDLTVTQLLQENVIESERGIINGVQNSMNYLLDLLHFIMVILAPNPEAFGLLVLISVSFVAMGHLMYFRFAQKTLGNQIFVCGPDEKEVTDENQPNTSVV
Kind of assay: Hepcidin Internalization Assay (J774). It is filed as cell-based. The conditions noted are these: average (AVE) of multiple measurements; TMR-hepcidin 25 nM, J774 cells. An excerpt:
This cellular assay allows quantification of the binding of hepcidin to ferroportin (Fpn) through microscopic detection of internalization of a fluorescently labeled hepcidin into J774 cells. […] Binding of hepcidin to Fpn triggers internalization and degradation of both hepcidin and Fpn. However, the TMR (6-carboxytetramethylrhodamine) fluorophore attached to hepcidin remains associated with the cell after degradation of the hepcidin peptide backbone. Therefore, microscopic detection of cell-associated TMR fluorescence is a measure of hepcidin binding to Fpn and internalization of hepcidin and Fpn. If TMR-hepcidin is prevented from binding to Fpn, cellular TMR fluorescence remains low (Dürrenberger et al, 2013). The effect of small molecular weight Fpn inhibitor compounds in this assay was evaluated in vitro as described below.
After overnight incubation, cells were washed 3 times with pre-warmed DMEM w/o phenol red, 30 μl/well of DMEM w/o phenol red was added after the final wash and 10 μl/well of dilution series of test compounds were added in triplicates. […] Cells were incubated in a total volume of 50 μl at 37° C. with 5% CO2 for 2 hours, then Hoechst 33342 dye was added to a final concentration of 0.5 μg/ml to stain nuclei and further incubated for 10 min. at 37° C. with 5% CO2. Cells were washed 3 times with PBS and fixed in 100 μl of 4% paraformaldehyde in PBS for 15 min. at room temperature. After removal of the paraformaldehyde solution, cells were washed 3 times with PBS leaving 100 μl per well and the plates were sealed with foil plate seal. TMR (530-550 nm excitation/575-625 nm emission/400 ms exposure time) and Hoechst 33342 (360-370 nm excitation/420-460 nm emission/10 ms exposure time) fluorescence images were acquired using a ScanR plate imager (Olympus) with a 20× high NA objective. Four pictures were acquired per well and fluorescence channel covering ca. 1500 cells per well. The acquired image data was analysed with the ScanR image analysis software. Image analysis included detection of nuclei (Hoechst 33342 fluorescence), identification of cell-associated regions, application of a virtual channel and thresholding for rolling-ball-type background reduction, followed by application of the Sum(Mean) algorithm to measure the TMR fluorescence associated with cells as a quantitative measure for internalized TMR-hepcidin. IC50 values were calculated with the Sum(Mean) raw data using “log(inhibitor) vs. response” curve fitting of Prism 5 software (GraphPad Software Inc., version 5.02).

The target in assay [1] is T2, human Fpn-GFP fusion protein (Homo sapiens, UniProt Q9NP59).
T2 construct: expressed in transfected cells; host or cells: HEK-293 cell line #354 (derivative of HEK-293 Tet-ON Advanced, Clontech)
T2 sequence (Q9NP59 1-571): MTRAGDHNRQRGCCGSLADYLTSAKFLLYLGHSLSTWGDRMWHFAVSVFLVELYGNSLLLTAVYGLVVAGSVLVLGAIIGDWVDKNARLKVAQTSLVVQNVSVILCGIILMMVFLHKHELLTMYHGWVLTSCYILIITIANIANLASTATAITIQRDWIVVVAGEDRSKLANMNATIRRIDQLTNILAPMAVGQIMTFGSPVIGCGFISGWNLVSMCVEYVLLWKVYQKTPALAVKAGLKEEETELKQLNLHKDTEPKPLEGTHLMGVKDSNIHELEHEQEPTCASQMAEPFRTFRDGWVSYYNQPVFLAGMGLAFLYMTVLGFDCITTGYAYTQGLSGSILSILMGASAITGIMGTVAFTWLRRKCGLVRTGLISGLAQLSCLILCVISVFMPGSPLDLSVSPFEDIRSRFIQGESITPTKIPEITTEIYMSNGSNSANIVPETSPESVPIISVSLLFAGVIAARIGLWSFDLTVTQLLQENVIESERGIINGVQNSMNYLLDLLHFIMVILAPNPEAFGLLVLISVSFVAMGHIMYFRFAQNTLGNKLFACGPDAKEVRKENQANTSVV
As to the kind of experiment: Ferroportin Internalization and Degradation Assay (FACS). It is filed as cell-based. Conditions: average (AVE) of multiple measurements, Fpn-GFP MFI, HEK-293 cell line #354, FACS. The method, then:
Growing HEK-293 #354 cells in doxycycline containing media induced expression of human Fpn-GFP fusion protein on the cell surface. […] Small molecular weight Fpn inhibitor compounds were tested for dose-dependent effects on the Fpn-GFP mean fluorescence intensity (MFI) on HEK-293 cell line #354, as described below. HEK #354 cells were harvested from ca. 80% confluent cultures, seeded at 0.6×10^6 cells/ml in DMEM/F12 GlutaMAX™ medium (Invitrogen, Cat. 31331-028) containing 10% FBS (Clontech, Cat. 631106), 1% Penicillin-Streptomycin (Invitrogen, Cat. 15140-122), 200 μg/ml Hygromycin B (Invitrogen, Cat. 10687-010), Blasticidin 5 μg/ml, (Invitrogen, Cat. R210-01), 4 μg/ml doxycycline (Clontech, Cat. 631311), 50 μl per well of 384 well plates (Greiner; Cat. 781091) and grown at 37° C. with 5% CO2. After overnight incubation, 10 μl/well of dilution series of the test compounds were added in quadruplicates and plates were further incubated overnight at 37° C. with 5% CO2. Cells were washed once with FACS buffer (PBS containing 1% FBS, 2 mM EDTA and 0.05% NaN3), harvested in FACS buffer with 0.5 μg/ml propidium iodide (Sigma, Cat. P4864) and analyzed in a flow cytometer (CANTO™ II, BD Biosciences) equipped with high throughput sampler. Live HEK #354 cells were gated as propidium iodide negative population and analyzed for expression of Fpn-GFP.

Consider `O=C(NCc1ncccc1F)c1csc(CCNCc2nc3ccccc3[nH]2)n1` [Example 40], for which the 50% inhibitory concentration (IC50) on ferroportin (Fpn) was found to be 49 nM. This compound also registered a concentration giving a half-maximal response (EC50) in assay [1] of 810 nM.
The corresponding values for `O=C(NCc1ncccc1F)c1cnc(C2CN(CCc3nc4ccccc4[nH]3)C2)o1` [Example 2] are 35 nM and 630 nM.
For `O=C(NCc1ncccc1F)c1cnn(CCNCCc2cc3ccccc3[nH]2)c1` [Example 277], the IC50 against ferroportin (Fpn) came out at 11 nM. Moreover, in assay [1] (read-out: EC50 (the source's name)), the DC50 came to 69 nM.
At ferroportin (Fpn), `O=C(NCc1ncccc1F)c1cnc(CCNCCc2nc3ccccc3[nH]2)o1` [Example 1] gave a half-maximal inhibitory concentration (IC50) of 12 nM. In assay [1], this compound gave an EC50 of 220 nM.

As usually defined, the IC50 is the concentration needed to halve the response being measured. Lower therefore signals greater potency in that assay. As usually defined, the EC50 is the concentration needed to bring the measured effect to its halfway point.

Source of the values: patent US11066399B2, “Ferroportin inhibitors” (Vifor (International) AG, priority 2015, dated 2021).
